We go through six compounds from PubChem BioAssay AID306 (DTP/NCI, 2004).

In this test the test system is BDF1 mice, L1210 Methyl-GAG-resistant leukemia, survival T/C. The experiment in a line: NCI In Vivo Anticancer Drug Screen. Data for tumor model L1210 Leukemia resistant to Methyl-GAG; NSC 32946 (subcutaneous) in B6D2F1 (BDF1) mice. As to conditions: endpoint: mean survival time, schedule: Q01DX Z (ip), higher = longer survival. The method, then: The antitumor activity of compounds was measured in mice bearing transplantable tumors. Survival or tumor size were measured and the results are expressed as the measurement made in the treated group (T) divided by the measurement made in the vehicle treated control group (C). The tumor model used in this assay is L1210 Leukemia resistant to Methyl-GAG; NSC 32946 (subcutaneous) in B6D2F1 (BDF1) mice

[1] abbreviates: dose: 12.5 mg/kg/injection, vehicle: carboxymethylcellulose (CMC).
Where [2] appears, read: dose: 25.0 mg/kg/injection, vehicle: carboxymethylcellulose (CMC).
Where [3] appears, read: dose: 50.0 mg/kg/injection, vehicle: carboxymethylcellulose (CMC).
[4] abbreviates: dose: 12.5 mg/kg/injection, vehicle: saline.
Where [5] appears, read: dose: 25.0 mg/kg/injection, vehicle: saline.
Where [6] appears, read: dose: 100.0 mg/kg/injection, vehicle: saline.

Molecules are shown by their SMILES. Where “and” joins values, the source holds several entries; their conditions need not be identical. Equal values may be shown once. Toxic doses and inconclusive results are not listed.

Turning to `CCCNc1ncnc2[nH]ncc12`, the T/C is, setting by setting: (dose: 5.0 mg/kg/injection, vehicle: water) 96 % of control; (dose: 10.0 mg/kg/injection, vehicle: water) 93 % of control; (dose: 20.0 mg/kg/injection, vehicle: water) 120 % of control; (dose: 40.0 mg/kg/injection, vehicle: water) 88 % of control and 112 % of control.

With `CSc1ncnc2nc[nH]c12`, the T/C was 106 % of control under setting [1]; 111 % of control under setting [2]; 106 % of control under setting [3]; 115 % of control (dose: 100.0 mg/kg/injection, vehicle: carboxymethylcellulose (CMC)); 97 % of control (dose: 200.0 mg/kg/injection, vehicle: carboxymethylcellulose (CMC)).

In the case of `CN(N=O)C(=O)NC(C=O)C(O)C(O)C(O)CO` (configuration not stated), the T/C under setting [4] was 101 % of control; the T/C under setting [5] is 106 % of control and 113 % of control; the T/C (dose: 50.0 mg/kg/injection, vehicle: saline) is 105 % of control and 110 % of control; the T/C under setting [6] is 160 % of control; the T/C (dose: 200.0 mg/kg/injection, vehicle: saline) is 90 % of control.

With `Cn1cc(NC(=O)c2cc(NC(=O)CN=C(N)N)cn2C)cc1C(=O)NCCC(=N)N`, the T/C (dose: 6.3 mg/kg/injection, vehicle: saline) was 112 % of control; the T/C under setting [4] is 102 % of control; the T/C under setting [5] is 91 % of control.

As to `N#CCSc1ncnc2nc[nH]c12`, the T/C reads like this: under setting [1], 101 % of control; under setting [2], 110 % of control; under setting [3], 123 % of control.

As for `O=c1[nH]cc(F)c(=O)[nH]1`, the T/C (dose: 6.25 mg/kg/injection, vehicle: saline) was 102 % of control and the T/C under setting [6] was 110 % of control.
